{
  "source": "patent US20140094456A1",
  "about": "“ANTI-FIBROTIC PYRIDINONES” (InterMune, Inc., priority 2012, published 2014)",
  "key": {"[1]": {"tested_on": "endothelin-1 (ET-1) production", "experiment": "ET-1 assay: inhibitory effect on TGF-b induced endothelin-1 production in fibroblasts (ELISA)", "assay_type": "cell-based, human", "conditions": "inhibition of stimulant (TGFb, serum, LPA etc) induced ET-1 production in fibroblasts", "experimental": "Assay of Inhibitory Effect on TGF-b Induced Endothelin-1 Production\nFibroblasts (primary human lung and dermal, HFL-1, 3T3 etc) are seeded in 96-well plates at ˜15000 cells/well and serum starved for 0-48 hours. After media exchange, compounds serially diluted in DMSO are added to the cells. After a brief incubation of ˜30 min, stimulants (TGFb, serum, LPA etc) are added followed by further incubation for 16-48 hours. Media is then harvested and stored frozen in plate format for later endothelin-1 (ET-1) determination by ELISA. Toxicity measurements are made using the ATPlite kit (Perkin-Elmer). ET-1 is quantified using an ELISA kit (R&D Systems). The amount of ET-1 produced in the assay wells are back-calculated using the ELISA standard. The ability of a compound to inhibit ET-1 production is typically analyzed by fitting dose-response curves to a 4-parameter logistic function to obtain an EC50 value. A measure of cytotoxicity (CC50) is likewise reported from the same experiment using the ATPlite data.\n(§1) Compounds of some embodiments were prepared according to synthetic methods described herein and assay data obtained for EC50 against ET-1. The assay data obtained is presented in Table 2, in which A=less than 50 μM, B=greater than or equal to 50 μM and less than or equal to 200 μM; and C=greater than 200 μM."}, "[2]": {"tested_on": "Fibroblasts (primary human lung and dermal, HFL-1, 3T3 etc)", "experiment": "Cell proliferation assay: inhibitory effect on cell proliferation (BrdU incorporation) in fibroblasts", "assay_type": "cell-based", "conditions": "HFL1, 50% inhibition of stimulant (LPA, TGFb, serum etc) induced increase of BrdU incorporation in fibroblasts", "experimental": "Assay of Inhibitory Effect on Cell Proliferation (BrdU Incorporation)\nFibroblasts (primary human lung and dermal, HFL-1, 3T3 etc) were plated on a 96-well plate and serum starved for 24-48 hours. The media were then exchanged for media containing stimulants (LPA, TGFb, serum etc) and cultured further for 16-24 hours before BrdU addition. After culturing for another 8 hours, cells were washed with PBS and the amount of BrdU incorporated into the cells was assayed by absorbance at 450 nm using the Cell proliferation ELISA system (RPN250, Amersham LIFE SCIENCE). The difference between the amount of BrdU incorporated in the stimulant-added well and the amount of BrdU incorporated in the well containing no stimulant represented the amount of BrdU incorporation accelerated by stimulant. The increase of BrdU incorporation without the addition of test compounds was set as 100% and the concentration of compound with 50% inhibition in the increase of BrdU incorporation (IC50 value) was determined. The test compounds were added 0-30 min before stimulant addition.\nas §1, with “IC50 for BrdU inhibition.” for “EC50 against ET-1.”, “3,” for “2,”"}},
  "note": "pEC50, pIC50: −log10 of the molar value.",
  "data": [
    {"compound": "COCCOCCOCCOc1cccc(-n2cc(C)ccc2=O)c1", "note": "[Compound 22]", "values": [
      {"measurement": "pEC50", "setting": "[1]; Homo sapiens, Fibroblast", "value": "< 3.70"}
    ]},
    {"compound": "CCOC(=O)Nc1cc(=O)n(-c2ccc(OC(F)(F)F)cc2)cc1-c1ccc(F)cc1", "note": "[Compound 114]", "values": [
      {"measurement": "pEC50", "setting": "[1]; Homo sapiens, Fibroblast", "value": "< 3.70"}
    ]},
    {"compound": "CCCCOC(=O)Nc1cc(=O)n(-c2ccc(OC(F)(F)F)cc2)cc1-c1cnn(C)c1", "note": "[Compound 136]", "values": [
      {"measurement": "pEC50", "setting": "[1]; Homo sapiens, Fibroblast", "value": "3.70 to 4.30"}
    ]},
    {"compound": "Cc1cc(=O)n(-c2ccc(C(F)(F)F)cc2)cc1-c1ccccc1", "note": "[Compound 170]", "values": [
      {"measurement": "pEC50", "setting": "[1]; Homo sapiens, Fibroblast", "value": "> 4.30"}
    ]},
    {"compound": "COCCOCCOCCOc1ccc(-n2cc(C)ccc2=O)cc1", "note": "[Compound 21]", "values": [
      {"measurement": "pIC50", "setting": "[2]", "value": "< 3.70"},
      {"measurement": "pEC50", "setting": "[1]; Homo sapiens, Fibroblast", "value": "< 3.70"}
    ]},
    {"compound": "Cn1cc(-c2cn(-c3ccc(OC(F)(F)F)cc3)c(=O)cc2NC(=O)OCc2ccccc2)cn1", "note": "[Compound 140]", "values": [
      {"measurement": "pEC50", "setting": "[1]; Homo sapiens, Fibroblast", "value": "3.70 to 4.30"}
    ]},
    {"compound": "CC(C)Oc1ccc(-n2cc(-c3ccc(F)cc3)ccc2=O)cc1", "note": "[Compound 288]", "values": [
      {"measurement": "pEC50", "setting": "[1]", "value": "3.70 to 4.30"}
    ]},
    {"compound": "COCCOc1ccc(Oc2cc(=O)n(-c3ccc(OC(F)(F)F)cc3)cc2-c2cnn(C)c2)cc1", "note": "[Compound 533]", "values": [
      {"measurement": "pEC50", "setting": "[1]; Homo sapiens, Fibroblast", "value": "3.70 to 4.30"}
    ]},
    {"compound": "CC(=O)c1ccc(=O)n(-c2ccc(OC(C)C)cc2)c1", "note": "[Compound 10]", "values": [
      {"measurement": "pEC50", "setting": "[1]; Homo sapiens, Fibroblast", "value": "< 3.70"}
    ]},
    {"compound": "O=c1c2c(ncn2C2CC2)c(-c2cn[nH]c2)cn1-c1ccc(OC(F)(F)F)cc1", "note": "[Compound 650]", "values": [
      {"measurement": "pIC50", "setting": "[2]", "value": "> 4.30"},
      {"measurement": "pEC50", "setting": "[1]; Homo sapiens, Fibroblast", "value": "> 4.30"}
    ]},
    {"compound": "CN1C(=O)COc2c(-c3cnn(C)c3)cn(-c3ccc(OC(F)(F)F)cc3)c(=O)c21", "note": "[Compound 396]", "values": [
      {"measurement": "pEC50", "setting": "[1]; Homo sapiens, Fibroblast", "value": "< 3.70"}
    ]}
  ]
}
